In PubChem BioAssay (NCI):
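Grown in 96-well plates, cells were treated for 48 hours with each compound at five concentrations. Insufficient inhibition: endpoint recorded as highest concentration tested. TGI: concentration producing complete growth inhibition.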

How the values were obtained:
Experiment in all cases: inhibition of tumour cell growth, NCI panel, 48 h
M19-MEL melanoma = system: M19-MEL melanoma
A498 renal = system: A498 renal
SNB-78 CNS = system: SNB-78 CNS
SK-MEL-5 melanoma = system: SK-MEL-5 melanoma
DMS 273 small cell lung = system: DMS 273 small cell lung
HOP-62 NSCLC = system: HOP-62 NSCLC
M14 melanoma = system: M14 melanoma
SN12C renal = system: SN12C renal
UACC-257 melanoma = system: UACC-257 melanoma
CAKI-1 renal = system: CAKI-1 renal
KM12 colon = system: KM12 colon
EKVX NSCLC = system: EKVX NSCLC
NCI-H460 lung = system: NCI-H460 lung
SNB-19 CNS = system: SNB-19 CNS
OVCAR-4 ovarian = system: OVCAR-4 ovarian
OVCAR-8 ovarian = system: OVCAR-8 ovarian
IGROV1 ovarian = system: IGROV1 ovarian
KM20L2 colon = system: KM20L2 colon
SK-MEL-28 melanoma = system: SK-MEL-28 melanoma
A549 NSCLC = system: A549 NSCLC
MOLT-4 leukemia = system: MOLT-4 leukemia
RXF-631 renal = system: RXF-631 renal
OVCAR-3 ovarian = system: OVCAR-3 ovarian
UACC-62 melanoma = system: UACC-62 melanoma
SF-539 CNS = system: SF-539 CNS
HL-60(TB) leukemia = system: HL-60(TB) leukemia
NCI-H522 lung = system: NCI-H522 lung
K-562 leukemia = system: K-562 leukemia
HCT-116 colon = system: HCT-116 colon
NCI-H226 lung = system: NCI-H226 lung
CCRF-CEM leukemia = system: CCRF-CEM leukemia
HT29 colon = system: HT29 colon
TK-10 renal = system: TK-10 renal
U251 CNS = system: U251 CNS
DLD-1 colon = system: DLD-1 colon
XF 498 CNS = system: XF 498 CNS
COLO 205 colon = system: COLO 205 colon
ACHN renal = system: ACHN renal
SW-620 colon = system: SW-620 colon
SF-268 CNS = system: SF-268 CNS
UO-31 renal = system: UO-31 renal
RXF 393 renal = system: RXF 393 renal
SF-295 CNS = system: SF-295 CNS
SR leukemia = system: SR leukemia
NCI-H23 lung = system: NCI-H23 lung
MALME-3M melanoma = system: MALME-3M melanoma
HOP-18 NSCLC = system: HOP-18 NSCLC
LOX IMVI melanoma = system: LOX IMVI melanoma
786-0 renal = system: 786-0 renal
SK-MEL-2 melanoma = system: SK-MEL-2 melanoma
OVCAR-5 ovarian = system: OVCAR-5 ovarian
LXFL 529 NSCLC = system: LXFL 529 NSCLC
SK-OV-3 ovarian = system: SK-OV-3 ovarian
SNB-75 CNS = system: SNB-75 CNS
HCC-2998 colon = system: HCC-2998 colon
RPMI-8226 leukemia = system: RPMI-8226 leukemia
DMS 114 small cell lung = system: DMS 114 small cell lung
HCT-15 colon = system: HCT-15 colon

Measured: TGI

O=C1CC(C[C@H](O)C2CCCCC2O)CC(=O)N1Cc1ccccc1 (some centres undefined)
not listed: RPMI-8226 leukemia | DMS 114 small cell lung | HCT-15 colon
> 100 µM: all other assays above

COc1ccc(-c2cc(-c3ccccc3)c(C#N)c(=O)n2C2OC(CO)C(O)C(O)C2O)cc1 (centres undefined)
not listed: CAKI-1 renal | XF 498 CNS | SK-MEL-2 melanoma | SNB-75 CNS
> 100 µM: all other assays above
